Data on one compound can be found in ChEMBL document CHEMBL5096227, “Discovery of Ervogastat (PF-06865571): A Potent and Selective Inhibitor of Diacylglycerol Acyltransferase 2 for the Treatment of Non-alcoholic Steatohepatitis” (J Med Chem, 2022).

The nature of data set [1]: Drug metabolism in monkey hepatocytes assessed as oxidation of THF ring mediated metabolite formation. In kind it is ADME, cell-based, Macaca mulatta, Hepatocyte. Particulars: rhesus monkey.
Data set [2] is described as follows: In vivo inhibition of DGAT2 in sucrose diet fed Sprague-Dawley rat assessed as reduction in triglyceride level at 90 mg/kg, po administered as single dose and measured after 2 hrs relative to control. In kind it is functional. Also noted: scale not given: the % may be the effect or the level left.
In another data set the target is T1, Cytochrome P450 1A2 (Homo sapiens, UniProt P05177).
T1 sequence (P05177 whole entry): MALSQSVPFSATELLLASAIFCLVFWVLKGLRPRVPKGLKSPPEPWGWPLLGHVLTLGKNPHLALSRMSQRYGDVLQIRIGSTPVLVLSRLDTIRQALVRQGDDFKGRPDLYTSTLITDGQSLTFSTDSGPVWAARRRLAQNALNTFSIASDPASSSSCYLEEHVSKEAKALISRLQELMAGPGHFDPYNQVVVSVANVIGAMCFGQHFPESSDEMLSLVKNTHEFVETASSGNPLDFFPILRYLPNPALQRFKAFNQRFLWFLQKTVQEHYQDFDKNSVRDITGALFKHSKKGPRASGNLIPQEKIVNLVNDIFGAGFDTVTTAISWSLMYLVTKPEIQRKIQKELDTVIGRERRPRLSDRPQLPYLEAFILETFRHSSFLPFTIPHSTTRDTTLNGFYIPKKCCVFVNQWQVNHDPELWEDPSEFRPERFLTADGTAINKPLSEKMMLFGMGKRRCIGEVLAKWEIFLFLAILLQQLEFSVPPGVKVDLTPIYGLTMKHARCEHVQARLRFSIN
As to the kind of experiment: Reversible inhibition of CYP1A2 in pooled human liver microsomes using […] as substrate incubated for 20 mins in presence of NADPH by HPLC-MS/MS analysis. In kind it is ADME, Microsome. On the technique in general: Liver microsomes are vesicles of endoplasmic reticulum, rich in cytochrome P450 enzymes.

Data set [3] can be described thus: Plasma protein binding in rat assessed as unbound fraction ratio at 2 uM. It counts as ADME, cell-free.
Data set [4] is described as follows: Drug metabolism in cryopreserved human hepatocytes assessed as oxidation of THF ring mediated metabolite formation at 10 uM measured for 240 mins by HPLC-UV-MS analysis. It counts as ADME, cell-based, Hepatocyte. The note with it: 4 h.
Data set [5] is described as follows: Half life in Wistar Han rat at 1 mg/kg, iv. Particulars: in vivo. It counts as ADME, organism-based.
Data set [6] is described as follows: Apparent permeability in MDCK-II cells. It counts as ADME, cell-based, Canis lupus familiaris. The note with it: dog, MDCK; read-out: Papp.
A short description of data set [7]: Plasma protein binding in human assessed as unbound fraction ratio at 2 uM. In kind it is ADME, cell-free.
For a further data set, the target named is Cytochrome P450 2C9 (Homo sapiens, UniProt P11712). Briefly: Reversible inhibition of CYP2C9 in pooled human liver microsomes using 4-Hydroxydiclofenac as substrate incubated for 10 mins in presence of NADPH by HPLC-MS/MS analysis. It counts as ADME, Microsome.
Data set [8] is described as follows: Apparent intrinsic clearance in cryopreserved human hepatocytes measured per million cells at 1 uM incubated for 4 hrs by LC-MS/MS analysis. Particulars: cryopreserved human hepatocytes, read-out: CLH. It counts as ADME, cell-based, Hepatocyte.
A further data set has as its system Rattus norvegicus. As to the kind of experiment: In vivo inhibition of DGAT2 in high fat/high cholesterol diet fed Sprague-Dawley rat model assessed as reduction in hepatic triglyceride level administered orally twice daily for 7 days starting from day 14 post diet and measured 2 hrs post last dose. It counts as functional, organism-based. The note with it: dose 0.3-90 mg/kg, route po, time 7.0 day, DDE = dose-dependent effect.

The nature of data set [9]: Drug metabolism in cryopreserved human hepatocytes assessed as O-dearylation mediated oxidative metabolite formation at 10 uM measured for 240 mins by HPLC-UV-MS analysis. It counts as ADME, cell-based, Hepatocyte. Particulars: 4 h.
Data set [10] in a line: Genotoxicity in human TK6 cells by micronucleus test. It counts as toxicity, cell-based.
A short description of data set [11]: Cardiotoxicity in non-human primates assessed as development-limiting toxicity.
The nature of data set [12]: Drug metabolism in monkey hepatocytes assessed as O-deethylation mediated pyridin-3-ol mediated metabolite formation. The note with it: rhesus monkey. In kind it is ADME, cell-based, Macaca mulatta, Hepatocyte.
Data set [13] is described as follows: Toxicity in non-human primates assessed as development-limiting toxicity.
The target of data set [14] is Voltage-gated inwardly rectifying potassium channel KCNH2 (Homo sapiens, UniProt Q12809). As to the kind of experiment: Inhibition of hERG by patch-clamp method. It counts as toxicity. (In general: Block of hERG is tested as a sign of cardiac risk.)
Data set [15] is described as follows: Inhibition of [14C]-glycerol incorporation into triglycerides in human primary hepatocytes. In kind it is functional, cell-based. The note with it: hepatocyte.
Data set [16] can be described thus: Drug metabolism in rat hepatocytes assessed as oxidation of THF ring mediated metabolite formation. It counts as ADME, cell-based, Hepatocyte.
Data set [17] in a line: Drug metabolism in cryopreserved human hepatocytes assessed as O-deethylation mediated pyridin-3-ol metabolite formation at 10 uM measured for 240 mins by HPLC-UV-MS analysis. In kind it is ADME, cell-based, Hepatocyte. Particulars: 4 h.
Data set [18] can be described thus: Toxicity in rat assessed as development-limiting toxicity. The note with it: in vivo.
The next data set has as its target Cytochrome P450 2D6 (Homo sapiens, UniProt P10635). As to the kind of experiment: Reversible inhibition of CYP2D6 in pooled human liver microsomes using dextrorphan as substrate incubated for 14 mins in presence of NADPH by HPLC-MS/MS analysis. It counts as ADME, Microsome.
In another data set the target is T2, Cytochrome P450 2C8 (Homo sapiens, UniProt P10632).
T2 sequence (P10632 whole entry): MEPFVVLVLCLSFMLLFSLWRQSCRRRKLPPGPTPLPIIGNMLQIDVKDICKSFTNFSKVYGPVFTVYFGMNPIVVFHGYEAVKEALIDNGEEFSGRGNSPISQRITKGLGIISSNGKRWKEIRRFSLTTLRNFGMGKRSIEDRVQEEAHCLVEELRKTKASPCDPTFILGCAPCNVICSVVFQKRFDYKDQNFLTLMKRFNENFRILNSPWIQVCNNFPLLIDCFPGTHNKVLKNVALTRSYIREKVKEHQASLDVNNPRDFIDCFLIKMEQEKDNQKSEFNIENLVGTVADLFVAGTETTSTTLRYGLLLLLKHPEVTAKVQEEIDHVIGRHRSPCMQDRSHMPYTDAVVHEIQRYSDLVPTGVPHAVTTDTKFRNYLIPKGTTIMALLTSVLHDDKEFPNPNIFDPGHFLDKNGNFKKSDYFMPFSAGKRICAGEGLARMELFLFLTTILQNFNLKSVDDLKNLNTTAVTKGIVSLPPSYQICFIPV
Briefly: Reversible inhibition of CYP2C8 in pooled human liver microsomes using desethylamodiaquine as substrate incubated for 10 mins in presence of NADPH by HPLC-MS/MS analysis. In kind it is ADME, Microsome.

Data set [19] deals with T3, Diacylglycerol O-acyltransferase 2 (Rattus norvegicus, UniProt Q5FVP8).
T3 sequence (Q5FVP8 whole entry): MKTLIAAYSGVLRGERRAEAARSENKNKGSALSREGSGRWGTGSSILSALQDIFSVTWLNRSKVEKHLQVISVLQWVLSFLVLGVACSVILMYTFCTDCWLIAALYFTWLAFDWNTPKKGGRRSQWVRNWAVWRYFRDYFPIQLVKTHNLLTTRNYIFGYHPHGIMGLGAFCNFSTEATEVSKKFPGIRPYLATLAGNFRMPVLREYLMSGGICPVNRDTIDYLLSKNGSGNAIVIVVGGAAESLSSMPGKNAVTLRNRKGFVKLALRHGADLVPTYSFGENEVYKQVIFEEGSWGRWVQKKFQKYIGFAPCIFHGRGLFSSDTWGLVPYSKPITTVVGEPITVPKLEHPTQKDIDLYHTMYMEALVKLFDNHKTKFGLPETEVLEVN
As to the kind of experiment: Inhibition of rat DGAT2 using [1-14C]decanoyl-CoA and 1,2-didecanoyl-sn-glycerol as substrates assessed as incorporation of [1-14C]decanoyl into triacylglycerol preincubated for 120 mins followed by substrate addition and measured after 40 mins by scintillation counting method.

Some results are limits rather than exact numbers.

Cytochrome P450 2C9, sequence (P11712 whole entry): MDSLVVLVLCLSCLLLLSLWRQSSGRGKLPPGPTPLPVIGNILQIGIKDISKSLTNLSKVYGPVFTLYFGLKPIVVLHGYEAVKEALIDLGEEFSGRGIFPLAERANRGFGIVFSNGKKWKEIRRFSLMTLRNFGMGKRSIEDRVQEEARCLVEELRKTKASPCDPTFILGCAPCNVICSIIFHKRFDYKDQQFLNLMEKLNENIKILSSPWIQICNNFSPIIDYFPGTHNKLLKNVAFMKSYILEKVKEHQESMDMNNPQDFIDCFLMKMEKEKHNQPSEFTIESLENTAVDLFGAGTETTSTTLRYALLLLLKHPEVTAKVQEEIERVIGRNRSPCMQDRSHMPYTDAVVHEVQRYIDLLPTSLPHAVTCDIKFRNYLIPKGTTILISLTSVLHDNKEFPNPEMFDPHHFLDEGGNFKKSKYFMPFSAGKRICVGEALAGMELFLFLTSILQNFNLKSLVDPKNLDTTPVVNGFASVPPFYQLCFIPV
Voltage-gated inwardly rectifying potassium channel KCNH2, sequence (Q12809 whole entry): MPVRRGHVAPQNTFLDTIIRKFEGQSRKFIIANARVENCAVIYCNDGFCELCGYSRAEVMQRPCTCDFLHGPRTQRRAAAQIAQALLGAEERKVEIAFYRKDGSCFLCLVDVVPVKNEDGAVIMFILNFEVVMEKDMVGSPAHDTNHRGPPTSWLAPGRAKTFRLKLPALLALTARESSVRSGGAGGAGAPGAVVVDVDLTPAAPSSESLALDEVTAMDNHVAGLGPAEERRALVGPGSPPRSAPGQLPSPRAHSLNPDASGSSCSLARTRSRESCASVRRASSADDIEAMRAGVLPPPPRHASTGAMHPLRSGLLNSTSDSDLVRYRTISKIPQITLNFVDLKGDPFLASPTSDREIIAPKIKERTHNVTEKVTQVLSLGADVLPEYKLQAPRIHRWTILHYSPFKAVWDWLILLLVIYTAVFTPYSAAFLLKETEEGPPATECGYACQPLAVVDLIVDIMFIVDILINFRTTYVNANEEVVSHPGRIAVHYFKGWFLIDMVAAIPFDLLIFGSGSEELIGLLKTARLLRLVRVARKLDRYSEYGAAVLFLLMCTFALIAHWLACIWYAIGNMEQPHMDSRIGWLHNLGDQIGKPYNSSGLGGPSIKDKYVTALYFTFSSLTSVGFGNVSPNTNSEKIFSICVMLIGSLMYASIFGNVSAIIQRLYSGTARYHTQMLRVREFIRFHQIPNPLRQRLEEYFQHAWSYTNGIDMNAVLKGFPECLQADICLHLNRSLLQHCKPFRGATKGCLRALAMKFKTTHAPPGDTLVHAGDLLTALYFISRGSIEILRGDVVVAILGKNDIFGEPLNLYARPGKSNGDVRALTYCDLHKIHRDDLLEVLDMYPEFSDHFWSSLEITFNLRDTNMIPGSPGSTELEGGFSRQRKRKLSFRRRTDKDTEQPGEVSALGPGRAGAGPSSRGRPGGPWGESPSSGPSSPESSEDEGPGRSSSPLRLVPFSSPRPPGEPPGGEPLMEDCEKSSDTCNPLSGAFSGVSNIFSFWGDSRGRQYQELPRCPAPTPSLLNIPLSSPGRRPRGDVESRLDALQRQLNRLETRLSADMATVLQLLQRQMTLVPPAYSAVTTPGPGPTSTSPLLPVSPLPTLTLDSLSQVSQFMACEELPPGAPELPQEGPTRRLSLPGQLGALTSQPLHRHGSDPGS
Cytochrome P450 2D6, sequence (P10635 whole entry): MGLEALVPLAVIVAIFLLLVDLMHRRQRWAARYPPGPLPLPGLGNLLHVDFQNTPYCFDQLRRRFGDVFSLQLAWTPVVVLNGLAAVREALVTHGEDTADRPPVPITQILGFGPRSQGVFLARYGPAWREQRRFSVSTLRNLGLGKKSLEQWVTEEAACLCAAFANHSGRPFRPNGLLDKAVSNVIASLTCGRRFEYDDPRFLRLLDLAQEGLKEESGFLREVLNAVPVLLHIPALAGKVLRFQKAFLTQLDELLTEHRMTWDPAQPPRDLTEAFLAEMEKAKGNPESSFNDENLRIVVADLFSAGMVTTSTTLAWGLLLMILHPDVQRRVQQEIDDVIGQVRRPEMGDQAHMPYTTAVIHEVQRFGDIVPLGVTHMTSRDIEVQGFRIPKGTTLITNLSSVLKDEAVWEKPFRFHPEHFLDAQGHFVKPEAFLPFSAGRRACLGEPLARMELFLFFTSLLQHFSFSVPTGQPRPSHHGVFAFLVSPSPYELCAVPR

On to `CCOc1cccnc1Oc1cncc(-c2ncc(C(=O)N[C@H]3CCOC3)cn2)c1` [PF-06865571], for which the Drug metabolism result in [1], in data set [4], in [9], in [12], in data set [16] and in data set [17] was “Metabolite_Detected” in each case. In addition, the Activity in [2] was 76%; in the data set on Rattus norvegicus, “Dde”; in data set [10], “Non-Toxic”; in data set [11], “Non-Toxic”; in [13], “Non-Toxic”; in [18], “Non-Toxic”. The IC50 on Cytochrome P450 1A2 is above 100 µM; on Cytochrome P450 2C9 it was 8.7 µM; in data set [14], above 100 µM; in data set [15], 0.00279 µM; at Cytochrome P450 2D6, above 100 µM; at Cytochrome P450 2C8, above 100 µM. In addition, the half-inhibitory concentration (IC50) in data set [19] worked out at 0.833 µM. In addition, the figures for the Ratio in [3] and in data set [7] were 0.213 and 0.353, respectively. Besides, the half-life in data set [5] is 18 min. Further, in [6], the Papp stood at 19 ×10⁻⁶ cm/s. In data set [8], the hepatocyte CLint at 1 µM was below 4 µL/min/1e6 cells.

Usually IC50 stands for the concentration that gives 50% inhibition. For orientation: half-life means how long it takes for the measured level to halve. By Papp is commonly meant the rate of passage across a membrane or cell layer, normalised by area and donor concentration.
